Data as given in US20030073206A1, “Use of xylene monooxygenase for the oxidation of substituted monocyclic aromatic compounds” (priority 2001, published 2003).

Tests used:
[1] = test system: xylene monooxygenase (xylM and xylA) cloned from Sphingomonas strain ASU1; test: Oxidation of p-xylene by Escherichia coli recombinant with cloned ASU1 xylene monooxygenase genes (Clone 4a), HPLC of culture supernatant; type: cell-based; settings: Clone 4a culture in M9 medium with p-xylene, 37° C., after 24 h of incubation
Procedure: (§1) Standard M9 minimal medium were used to assay for oxidation of p-xylene by Escherichia coli with cloned xylene monooxygenase. The M9 medium consisted of 42.3 mM Na2HPO4, 22.1 mM KH2PO4, 8.6 mM NaCl, 18.7 mM NH4Cl, 2 mM MgSO4 and 0.1 mM CaCl2, 0.4% of glycerol was used as the carbon/energy source.
(§2) Analyses were performed on a Hewlett Packard 1100 series with a photo diode UV-visible detector set at 230 nm (primary wavelength), 254 nm (secondary wavelength) and 450 nm as background reference and a LC/MSD-ESI negative ion spectrophotometer. The column was a Hewlett Packard part # 880967.901 Zorbax® SB-C8 (4.6 mm×25 cm), purchased from Agilient Technologies (Palo Alto, Calif.). The column temperature was controlled at 50° C. Mobile phase was […] ammonium acetate (20 mL 1 M ammonium acetate in 1800 mL water (solvent-2=S-2)) and acetonitrile (solvent-1=S-1). […]
(§3) The conversion of p-xylene to 4-hydroxymethylbenzoic acid was monitored by reverse phase HPLC. […]
(§4) Escherichia coli strain TOP10(pCR®2.1 TOPO™) and Escherichia coli clones expressing xylene monooxygenase (Clone 4a and Clone 6f) were inoculated into 500 mL Erlenmyer flasks containing 50 mL of M-9 supplemented with tryptophan (100 μg/mL), glycerol (0.4%), casamino acids (0.4%) and 50 μg/mL ampicillin. […] The sample supernatants were passed through 0.22 μm Acrodisc® CR PFTE filters and analyzed for metabolites of p-xylene by HPLC.

[2] = biological target: T1, xylene monooxygenase (xylM and xylA) cloned from plasmid pWWO (Pseudomonas putida, UniProt P21395); test: Oxidation of p-xylene by Escherichia coli recombinant with cloned pWWO xylene monooxygenase genes (Clone 6f), HPLC of culture supernatant; type: cell-based; settings: Clone 6f culture in M9 medium with p-xylene, 37° C., after 24 h of incubation
T1 construct: expressed in transfected cells; host or cells: Escherichia coli TOP10 carrying pCR2.1-TOPO with a 2.4 kb pWWO xylM-xylA PCR fragment from P. putida ATCC 33015 (Clone 6f)
Procedure: as §1, §2, §3, §4

[3] = test system: Sphingomonas strain ASU1; test: Carbon source utilization for strain ASU1 (growth on S12 agar with aromatic compounds); type: cell-based, Sphingomonas sp.; settings: compound as sole source of carbon and energy, 28° C.
Procedure: S12 agar was used to isolate bacteria from liquid enrichment cultures that grow on 2,6-dimethylnaphthalene (2,6-DMN) and to test isolates for growth with various sources of carbon and energy. S12 agar was prepared by adding 1.5% Noble agar (DIFCO) to S12 medium.
Bacteria that grow on 2,6-DMN were isolated from an enrichment culture. The enrichment culture was established by inoculating 0.1 mL of activated sludge into 10 mL of S12 medium in a 125 mL screw cap Erlenmeyer flask. The activated sludge was obtained from a wastewater treatment facility in Ponco City. The enrichment culture was supplemented with adding yeast extract (0.001 % final concentration) by adding a few flakes of 2,6-DMN directly to the culture medium. The enrichment culture was incubated at 28° C. with reciprocal shaking. The culture was diluted every 4 to 7 d by replacing 9 mL of the culture with the same volume of S12 medium with 0.001% yeast extract and a few additional flakes of 2,6-DMN. Bacteria that utilized 2,6-DMN as a sole source of carbon and energy were isolated by spreading samples of the enrichment culture onto S12 agar. 2,6-DMN was placed on the interior of each Petri dish lid. The Petri dishes were sealed with parafilm and incubated upside down at 28° C. Representative bacterial colonies were then tested for the ability to use 2,6-DMN as a sole source of carbon and energy. […]

T1 sequence (P21395 whole entry, the tested form may be a part): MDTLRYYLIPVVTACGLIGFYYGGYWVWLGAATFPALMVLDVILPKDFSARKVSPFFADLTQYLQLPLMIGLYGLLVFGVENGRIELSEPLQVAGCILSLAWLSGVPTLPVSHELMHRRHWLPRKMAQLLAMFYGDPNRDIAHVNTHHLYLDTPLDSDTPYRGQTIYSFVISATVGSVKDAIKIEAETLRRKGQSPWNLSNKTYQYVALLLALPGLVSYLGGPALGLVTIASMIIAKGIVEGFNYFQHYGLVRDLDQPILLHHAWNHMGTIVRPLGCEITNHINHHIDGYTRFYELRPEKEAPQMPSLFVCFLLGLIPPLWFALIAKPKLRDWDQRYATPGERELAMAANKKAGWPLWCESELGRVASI

Cc1ccc(C)cc1 [p-xylene]
p-xylene metabolites detected by HPLC [1]: Three p-xylene metabolites were detected
p-xylene metabolites detected by HPLC [2]: Three p-xylene metabolites were detected

c1ccccc1 [Benzene]
Growth on Carbon Source [3]: unable to utilize

Cc1ccc2cc(C)ccc2c1 [2,6-dimethylnaphthalene]
Growth on Carbon Source ([3]; listed as 2,6-DMN): able to grow
